Source: PMC12120022, “Discovery and chemical optimisation of a potent, Bi-cyclic antimicrobial inhibitor of Escherichia coli PBP3” (Communications Biology, 2025)
Converted amounts (≈) assume the structure as drawn. Read-outs that look alike come from different tables or passages of the source. Where a SMILES comes first, the peptide text is derived from it.

Tests used:
[1] = tested on: Escherichia coli NCTC 13441; assay: MIC; assay type: cell-based; settings: caMHB, replicates listed
Description: (§1) Minimal inhibition concentration (MIC) assays were performed in accordance with CLSI standards, using cation-adjusted Mueller Hinton broth (caMHB; Sigma Aldrich) unless otherwise specified. Induction of pore expression in hyperporinated strains E. coli GKCW101 and GKCW102 was performed by addition of 0.1% (w/v) L-arabinose to cultures at OD600 ~ 0.3, with caMHB as the culture medium.

[2] = tested on: Acinetobacter baumannii AR0275; assay: MIC; assay type: cell-based; settings: caMHB, replicates listed; for MIC: Acinetobacter baumannii, AR0275
Description: as §1

[3] = tested on: Klebsiella pneumoniae KPNIH1; assay: MIC; assay type: cell-based; settings: caMHB, replicates listed
Description: as §1

Proteus mirabilis AR159 = assay: MIC; assay type: cell-based; settings: caMHB, replicates listed; for MIC: Proteus mirabilis, AR159
Description: as §1

[4] = tested on: Klebsiella pneumoniae B454; assay: MIC; assay type: cell-based; settings: caMHB, replicates listed
Description: as §1

[5] = tested on: Enterobacter cloacae AR0038; assay: MIC; assay type: cell-based; settings: caMHB, replicates listed; for MIC: Enterobacter cloacae, AR0038
Description: as §1

[6] = tested on: Escherichia coli ATCC BAA-2469; assay: MIC; assay type: cell-based; settings: caMHB, replicates listed; for MIC: Escherichia coli, ATCCBAA2469
Description: as §1

[7] = tested on: Citrobacter freundii AR0116; assay: MIC; assay type: cell-based; settings: caMHB, replicates listed; for MIC: Citrobacter freundii, AR0116
Description: as §1

[8] = tested on: Pseudomonas aeruginosa NCTC 13437; assay: MIC; assay type: cell-based; settings: caMHB, replicates listed
Description: as §1

EcPBP3 [9] = biological target: T1, EcPBP3 (Escherichia coli, UniProt P0AD68); assay: SPR binding assay on immobilised EcPBP3; settings: 37 °C, kinetic fitting; NB = no binding at 2500 nM (Tables S-4, S-5) or 5000 nM (Table 1); read-out: Kd (nM) by SPR (geomean)
T1 construct: For assays, selections and SPR a construct with residues 60–588 which has the N-terminal domain, but not the transmembrane helix, was used; made in house
T1 sequence (P0AD68 60-588): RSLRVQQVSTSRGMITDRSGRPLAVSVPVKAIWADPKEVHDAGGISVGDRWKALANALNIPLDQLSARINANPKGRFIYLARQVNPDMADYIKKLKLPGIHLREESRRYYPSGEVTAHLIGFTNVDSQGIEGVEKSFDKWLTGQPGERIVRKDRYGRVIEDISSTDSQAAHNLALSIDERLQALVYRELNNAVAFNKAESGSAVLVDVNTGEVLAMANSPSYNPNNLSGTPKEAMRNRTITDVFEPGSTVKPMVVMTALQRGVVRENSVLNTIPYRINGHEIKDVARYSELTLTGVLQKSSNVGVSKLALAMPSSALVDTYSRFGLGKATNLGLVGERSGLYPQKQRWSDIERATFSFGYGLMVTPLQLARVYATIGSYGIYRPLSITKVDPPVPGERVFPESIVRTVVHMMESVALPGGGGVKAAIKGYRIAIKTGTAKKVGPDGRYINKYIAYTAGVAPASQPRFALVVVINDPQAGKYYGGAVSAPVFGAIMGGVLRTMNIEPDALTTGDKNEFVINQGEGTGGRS
Summary of the method: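 EcPBP3 amine-coupled to CM5 chip (1500-2500 RU); compounds injected at 37 °C in 10 mM HEPES pH 8.0, 200 mM NaCl, 0.05% Tween-20, 2% DMSO, 50 μL min^–1, 150 s contact, 2400 s dissociation. Double-referenced sensorgrams kinetically fitted for Kd; geometric mean of ≥2 biological replicates.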

EcPBP3 [10] = biological target: T1, EcPBP3; assay: Fluorescence polarisation competition assay with BOCILLIN-FL as tracer; assay type: binding; settings: competition format, NB, non-binder (100 μM top concentration)
Description: Binding of output peptides to EcPBP3 was evaluated using a fluorescence polarisation (FP) assay.
[…] 10 µL of protein (9.4 nM) was mixed with either 5 µL of peptide or 5 µL of buffer and then the assay was initiated by the addition of 10 µL of tracer (1 nM) (final volume 25 µL), in a black 384 low bind, low volume plate (Corning). The buffer was 10 mM HEPES (Sigma), 2% (v/v) glycerol (Sigma), 300 mM NaCl (Sigma), adjusted to pH 8. The plate was incubated for 1 h at 25 °C and then read in a PHERAstar FS (BMG) using with an “FP 485 520 520” optic module (excitation 485 nm, emission 520 nm). The gain was determined immediately prior to the read on a tracer-only well.
Dotmatics (Dotmatics) workflows performing the above calculations were used to process the data. Values quoted are the geometric means of at least 2 repeats.

E. coli GKCW102 (EcPore) = settings: caMHB, biological replicates or their range
Description: (§2) To evaluate the engagement of EcPBP3 by a bicyclic peptide in whole cells lacking the outer membrane permeability barrier, peptides were screened in ‘hyperporinated’ E. coli strains in which a constitutively open FhuA pore (FhuAΔC/Δ4L, lacking N-terminal cork domain and external loops) was chromosomally expressed under control of an arabinose-inducible promoter.
as §1

E. coli GKCW101 (WT) = settings: caMHB; biological replicates or their range
Description: as §2, §1

E. coli ATCC 25922 = assay: MIC, wild-type strain; assay type: cell-based, Escherichia coli; settings: for MIC E. coli ATCC 25922: MHB, biological replicates or their range
Description: as §1

EcPBP3 [11] = biological target: T1, EcPBP3; assay: Fluorescence polarisation competition assay with fluorescent Bicycle tracer (tracer 1 / BCY12820); assay type: binding; settings: protein 9.4 nM sets sensitivity limit, top concentration 5 µM, read-out: Ki (nM) by fluorescence polarisation with tracer 1 (BCY12820 as tracer), Geometric mean (Lower 95% CI; Upper 95% CI, n=number of values)
Summary of the method: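 Unlabelled peptide competes with fluorescent Bicycle tracer (1 nM, as added) for EcPBP3 (9.4 nM, as added) in 10 mM HEPES, 2% glycerol, 300 mM NaCl, pH 8.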

PBPs in E. coli = assay: Bocillin FL staining of PBPs extracted from bacterial membranes; assay type: binding, E. coli strain DC2; settings: peptides at 3 µM, membranes of E. coli DC2
Description: Staining of PBPs extracted from bacterial membranes with Bocillin FL was used to determine the binding of peptide 2 (and its all-D analogue) to other PBPs in E. coli[8].
Method was adapted from that described by Kocaoglu and Carlson[8]. E. coli strain DC2 cells were grown overnight at 37 °C then diluted 100-fold and allowed to grow at 37 °C to an OD600 of 0.5 in Lysogeny broth (LB). The cells were then centrifuged (3220 x g for 10 min at room temperature) and washed once in PBS (pH 7.4) then pelleted and resuspended in ice-cold PBS. Cells were sonicated (Fisherbrand™ Model 505 Sonic Dismembrator) on ice for five 10 s intervals with 15 s cooling time in between rounds. The membranes were collected by centrifugation (21,000 x g for 15 min at 4 °C) and resuspended the pellet in 100 µL PBS using a blunt needle. The resuspended membranes were incubated with the indicated compound for 15 min at room temperature then 10 µg ml^–1 BOCILLIN-Fl (Invitrogen) was added and reacted with the resuspended membranes for 10 min. […] The total protein content of each condition was normalised to 2.5 mg ml^–1 by measuring the absorbance at A280 and adjusting where necessary with the addition of PBS. […] Following fluorescence imaging, the gel was stained with InstantBlue Ultrafast protein stain (Abcam), washed twice in water and imaged in brightfield with an iBright FL1500.

[12] = tested on: Enterobacter cloacae KPC114; assay: MIC; assay type: cell-based
Description: as §1

[13] = tested on: Enterobacter cloacae B173; assay: MIC; assay type: cell-based; settings: caMHB; replicates listed
Description: as §1

[14] = tested on: Enterobacter cloacae AR0032; assay: MIC; assay type: cell-based; settings: caMHB; replicates listed
Description: as §1

[15] = tested on: Citrobacter freundii B121; assay: MIC; assay type: cell-based; settings: caMHB; replicates listed
Description: as §1

[16] = tested on: Klebsiella pneumoniae ATCC 700603; assay: MIC; assay type: cell-based; settings: caMHB; replicates listed
Description: as §1

Escherichia coli UTI89 = assay: MIC; assay type: cell-based; settings: caMHB; replicates listed
Description: as §1

[17] = tested on: Acinetobacter baumannii NCTC 12156; assay: MIC; assay type: cell-based; settings: caMHB, replicates listed
Description: as §1

[18] = tested on: Pseudomonas aeruginosa ATCC 27853; assay: MIC; assay type: cell-based; settings: caMHB; replicates listed
Description: as §1

[19] = tested on: Klebsiella pneumoniae ATCC 43816; assay: MIC; assay type: cell-based; settings: caMHB; replicates listed
Description: as §1

[20] = tested on: Proteus mirabilis ATCC 43071; assay: MIC; assay type: cell-based; settings: caMHB; replicates listed
Description: as §1

Mouse blood stability = assay type: in vitro ADME, CD-1 mice; settings: CD-1, mouse, whole blood (EDTA as anticoagulant), 37 °C, SAR peptides, read-out: Blood stability (t1/2) (converted)
Description: Stability assays were performed using freshly collected matrices from CD-1 mice, with anticoagulant as stated per dataset. Compound stocks in DMSO were tested at 5 μM final concentration (0.5% (v/v) DMSO). Compounds were incubated in blood or plasma at 37 °C for 24 h, with sampling at 0, 1, 2, 4, 6 and 24 h. Samples were prepared via protein precipitation using organic solvent containing internal standard, and analyzed by LC-MS/MS. Compound remaining was quantified based on the ratio of analyte to internal standard, and the half-life (t1/2) was calculated from a log linear plot of % remaining versus time.

## C[C@H]1COc2c(N3CCN(C)CC3)c(F)cc3c(=O)c(C(=O)O)cn1c23 [Levofloxacin, reference compound]
[1]; Escherichia coli, NCTC13441
  MIC: > 2 µg/mL
[2]
  MIC: 2.2 µg/mL (≈ 6.09 µM)
[3]
  MIC: > 2 µg/mL
Proteus mirabilis AR159
  MIC: 2.2 µg/mL (≈ 6.09 µM)
[4]; Klebsiella pneumoniae, B454
  MIC: > 2 µg/mL
[5]
  MIC: > 2 µg/mL
[6]
  MIC: > 2 µg/mL
[7]
  MIC: > 2 µg/mL
[8]; Pseudomonas aeruginosa, NCTC13437
  MIC: 2.2 µg/mL (≈ 6.09 µM)

## CC(C)[C@@H]1NC(=O)[C@H](Cc2c[nH]c3ccccc23)NC(=O)[C@@H]2CCCN2C(=O)[C@@H]2CSCCC(=O)N3CN(CN(C3)C(=O)CCSC[C@H](NC(=O)[C@H](C)N)C(=O)N[C@@H](CO)C(=O)N[C@@H](Cc3ccccc3)C(=O)N3CCC[C@H]3C(=O)N[C@@H](CCCCN)C(=O)N2)C(=O)CCSC[C@@H](C(=O)N[C@@H](C)C(N)=O)NC(=O)CNC(=O)[C@H](CCC(=O)O)NC1=O [Peptide 2]
EcPBP3 [9]
  Kd: 5.23 nM
EcPBP3 [10]
  IC50 (nM) by fluorescence polarisation with Bocillin FL as tracer, Geometric mean (Lower 95% CI of geo. Mean; Upper 95% CI of geo. Mean, n=number of values): showed binding to EcPBP3
EcPBP3 [10]; read-out: IC50 (nM) by fluorescence polarisation with Bocillin FL as tracer, Geometric mean (Lower 95% CI of geo. Mean; Upper 95% CI of geo. Mean, n=number of values)
  IC50: 602 nM
E. coli GKCW102 (EcPore)
  MIC E. coli GKCW102 (EcPore): 0.5 to 2 µg/mL
E. coli GKCW102 (EcPore); listed as peptide 2
  MIC E. coli GKCW102 (EcPore): 0.5 to 2 µg/mL
E. coli GKCW101 (WT)
  MIC E. coli GKCW101 (WT): > 128 µg/mL
E. coli ATCC 25922
  MIC E. coli ATCC 25922: > 16 µg/mL
EcPBP3 [11]
  Ki: < 9 nM
PBPs in E. coli
  Binding to other PBPs in E. coli (Bocillin FL staining): bound only to the active site of E. coli PBP3

## ACSFPKCPWVEGCA* [Conjugate 2]
[1]
  MIC Escherichia coli NCTC 13441: 4,8 μg mL-1
[2]
  MIC Acinetobacter baumannii AR0275: > 64 µg/mL
Proteus mirabilis AR159
  MIC Proteus mirabilis AR159: > 64 µg/mL
[4]
  MIC Klebsiella pneumoniae B454: 16,32 μg mL-1
[12]; caMHB, replicates listed
  MIC Enterobacter cloacae KPC114: 8 µg/mL
[5]
  MIC Enterobacter cloacae AR0038: 8 µg/mL
[13]
  MIC Enterobacter cloacae B173: 16 µg/mL
[6]
  MIC Escherichia coli ATCC BAA-2469: 8,8 μg mL-1
[14]
  MIC Enterobacter cloacae AR0032: 4 µg/mL
[15]
  MIC Citrobacter freundii B121: 8 µg/mL
[16]
  MIC Klebsiella pneumoniae ATCC 700603: 16 µg/mL
Escherichia coli UTI89
  MIC Escherichia coli UTI89: 8 µg/mL
[17]
  MIC Acinetobacter baumannii NCTC 12156: > 64 µg/mL
[18]
  MIC Pseudomonas aeruginosa ATCC 27853: > 64 µg/mL
[19]
  MIC Klebsiella pneumoniae ATCC 43816: 8,16 μg mL-1
[7]
  MIC Citrobacter freundii AR0116: 8 µg/mL
[20]
  MIC Proteus mirabilis ATCC 43071: > 64 µg/mL
[8]
  MIC Pseudomonas aeruginosa NCTC 13437: > 64 µg/mL
E. coli GKCW102 (EcPore)
  MIC E. coli GKCW102 (EcPore): 0.5 to 1 µg/mL
E. coli GKCW101 (WT)
  MIC E. coli GKCW101 (WT): 4 to 8 µg/mL
E. coli ATCC 25922
  MIC E. coli ATCC 25922: 1 to 2 µg/mL
E. coli ATCC 25922; caMHB, replicates listed, number in brackets
  MIC Escherichia coli ATCC 25922: 2,8 μg mL-1

## CC(=O)N[C@H]1CSCCC(=O)N2CN3CN(C2)C(=O)CCSC[C@H](NC(=O)[C@H](CCCCNC(=N)N)NC(=O)[C@@H]2CCCN2C(=O)[C@H](Cc2ccccc2)NC(=O)[C@H](CO)NC1=O)C(=O)N1CCC[C@H]1C(=O)N[C@@H](Cc1c[nH]c2ccccc12)C(=O)N[C@@H](C(C)C)C(=O)N[C@@H](CCC(=O)O)C(=O)NCC(=O)N[C@H](C(=O)N[C@@H](C)C(N)=O)CSCCC3=O [Peptide 74] (HELM PEPTIDE1{[ac].C.S.F.P.[N=C(N)NCCCC[C@H](N[*:1])C(=O)[*:2]].C.P.W.V.E.G.C.A.[am]}|CHEM1{[O=C(CC[*:1])N1CN(C(=O)CC[*:2])CN(C(=O)CC[*:3])C1]}$PEPTIDE1,CHEM1,2:R3-1:R1|PEPTIDE1,CHEM1,7:R3-1:R2|PEPTIDE1,CHEM1,13:R3-1:R3$$$V2.0)
Mouse blood stability
  half-life at 5 μM: 17.7 h

## C[C@@H](O)[C@H]1C(=O)N2C(C(=O)O)=C(S[C@@H]3CN[C@H](C(=O)N(C)C)C3)[C@H](C)[C@H]12 [Meropenem, reference compound]
[2]
  MIC: > 2 µg/mL
Proteus mirabilis AR159
  MIC: > 2 µg/mL
[12]; Enterobacter cloacae, KPC114, read-out: MIC Enterobacter cloacae KPC114
  MIC: > 2 µg/mL
[5]
  MIC: > 2 µg/mL
[6]
  MIC: > 2 µg/mL
[17]; Acinetobacter baumannii, NCTC12156
  MIC: 1.1 µg/mL (≈ 2.87 µM)
[7]
  MIC: > 2 µg/mL
